Laboratory results published in patent EP1935986B1, “Luminogenic and fluorogenic compounds and methods to detect molecules or conditions” (priority 2005, dated 2006).

Columns and labels:
CYP4F12 = target: T1, CYP4F12 (Homo sapiens, UniProt Q9HCS2); experiment: Two-step luminescent P450 screen of luciferin derivatives; format: biochemical; conditions: result in words
T1 construct: purchased Discovery Labware (BD/Gentest); host or cells: insect cell expression system (membrane fractions)
T1 sequence (Q9HCS2 1-524): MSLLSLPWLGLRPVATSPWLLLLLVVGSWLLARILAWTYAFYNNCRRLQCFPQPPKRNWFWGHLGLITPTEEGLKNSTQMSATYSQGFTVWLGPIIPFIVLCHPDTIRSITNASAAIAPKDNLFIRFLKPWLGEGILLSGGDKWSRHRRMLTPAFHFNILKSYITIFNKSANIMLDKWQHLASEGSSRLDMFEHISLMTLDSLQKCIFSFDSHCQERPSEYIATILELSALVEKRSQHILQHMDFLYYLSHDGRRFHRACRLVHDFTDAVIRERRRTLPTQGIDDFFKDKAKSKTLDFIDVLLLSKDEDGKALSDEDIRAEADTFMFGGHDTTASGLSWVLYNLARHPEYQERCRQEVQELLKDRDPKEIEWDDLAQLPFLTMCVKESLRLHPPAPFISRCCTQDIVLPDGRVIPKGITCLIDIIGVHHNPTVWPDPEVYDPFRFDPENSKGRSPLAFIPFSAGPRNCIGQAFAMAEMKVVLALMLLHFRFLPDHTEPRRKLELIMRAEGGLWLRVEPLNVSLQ
Protocol: (§1) P450s are Supersomes™ purchased from Discovery Labware (BD/Gentest). […] HLM is human liver microsomes.
(§2) 1X substrate concentration: 50 µM.

[1] = system: CYP3A subfamily, CYP3A4, CYP3A5 and CYP3A7; experiment: Two-step luminescent P450 screen of luciferin derivatives, selectivity for the CYP3A subfamily; format: biochemical, human; conditions: result in words
Protocol: as §1, §2

CYP3A4 = CYP3A4 (Homo sapiens, UniProt P08684); experiment: Two-step luminescent P450 screen of luciferin derivatives; conditions: result in words
CYP3A4, sequence (P08684 2-503 limits assumed): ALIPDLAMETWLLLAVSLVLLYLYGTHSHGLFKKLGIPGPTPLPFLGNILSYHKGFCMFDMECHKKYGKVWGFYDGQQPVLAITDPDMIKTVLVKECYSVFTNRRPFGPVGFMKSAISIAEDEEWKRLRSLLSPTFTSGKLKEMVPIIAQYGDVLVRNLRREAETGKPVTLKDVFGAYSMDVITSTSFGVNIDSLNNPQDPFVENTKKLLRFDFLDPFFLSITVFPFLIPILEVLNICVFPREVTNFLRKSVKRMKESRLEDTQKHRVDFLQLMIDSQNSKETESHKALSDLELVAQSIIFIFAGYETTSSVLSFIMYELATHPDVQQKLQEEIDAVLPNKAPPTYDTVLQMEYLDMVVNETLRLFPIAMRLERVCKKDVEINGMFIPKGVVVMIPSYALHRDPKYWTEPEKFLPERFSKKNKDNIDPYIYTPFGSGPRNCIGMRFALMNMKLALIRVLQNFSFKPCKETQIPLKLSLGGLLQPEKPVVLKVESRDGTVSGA

luciferase = experiment: No-enzyme control: activity of luciferase towards the luciferin derivative (background luminescence); conditions: on a BMG luminometer; minus P450
Protocol: The reactions (Table 1) were assembled by first adding the water and 1 M BisTris solutions in individual 0.5 ml microfuge tubes, then adding the other components except for the GST #3 solution. Finally, the GST #3 (Figure 12) solution was added to the reactions, the resulting solution was mixed, and the time of addition noted. […]
The GST #3 addition was performed last and the solutions were mixed immediately after addition of GST #3. […] After mixing, the light produced by the solution was measured using a Turner TD 20/20 luminometer.
After assembly, the enzyme stock solutions were diluted 1:10 into 10 mM HEPES, pH 7.5 and the following additions were made to the reactions.
A 5 µl sample of the luciferol DMF solution was added to each of the reactions above and a timer was started upon the addition of the first luciferol/DMF solution to reaction 1. All reactions were kept at room temperature.
After incubating 5 minutes at room temperature, the light produced by these samples was measured using a Turner TD 20 luminometer.
To initiate the conversions, 5 µl of luciferol solution was added to reactions […], 6-9, and 11-15, and 10 µl of luciferol was added to reactions 5 and 10 and the tubes mixed after that addition. Immediately after luciferol addition to reaction 1, a timer was started and the time of luciferol addition to the other tubes noted. After mixing, reaction 11-15 were placed at 37°C.
After incubating 10 minutes at room temperature, the light produced by these samples was read using a Turner TD 20 luminometer (Table 18).
To initiate Step 1, 45 µl of enzyme and buffer were added to each well.
Solution A and Solution B are components of the NADPH Regeneration System (V9510, Promega Corp., Madison WI). […] Solution B contains 40 units/ml glucose-6-phosphate dehydrogenase in 5 mM citrate pH 5.5.

CYP2C19 = target: T2, CYP2C19 (Homo sapiens, UniProt P33261); experiment: Two-step luminescent P450 screen of luciferin derivatives; format: biochemical; conditions: result in words
T2 construct: purchased Discovery Labware (BD/Gentest); host or cells: insect cell expression system (membrane fractions)
T2 sequence (P33261 whole entry): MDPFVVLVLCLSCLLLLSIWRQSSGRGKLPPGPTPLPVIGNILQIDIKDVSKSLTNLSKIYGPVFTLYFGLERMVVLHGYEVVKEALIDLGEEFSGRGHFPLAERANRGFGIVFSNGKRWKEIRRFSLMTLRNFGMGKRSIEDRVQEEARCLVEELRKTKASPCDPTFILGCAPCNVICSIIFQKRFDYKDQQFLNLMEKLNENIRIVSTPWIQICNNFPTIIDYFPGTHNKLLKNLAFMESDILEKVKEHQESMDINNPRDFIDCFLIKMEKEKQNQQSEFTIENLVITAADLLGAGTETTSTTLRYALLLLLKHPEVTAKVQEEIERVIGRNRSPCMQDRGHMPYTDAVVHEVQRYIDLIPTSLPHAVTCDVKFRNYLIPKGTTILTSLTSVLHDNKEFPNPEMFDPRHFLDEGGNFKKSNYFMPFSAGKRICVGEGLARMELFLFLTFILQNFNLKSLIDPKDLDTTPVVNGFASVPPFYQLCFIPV
Protocol: as §1, §2
(§3) For Figure 20, 1 or 5 picomoles of recombinant CYP2D6 or CYP2C19 membrane fractions from an insect cell expression system (SupersomesTM, Discovery Labware) were incubated at 37°C for 60 minutes with 200 µM D-luciferin 6' methyl ether (luciferin-ME) in 50 mM (CYP2C19) or 100 mM (CYP2D6) KPO4 (pH 7.4) with an NADPH regenerating system (as described above) in a volume of 50 µl. […] For Figure 20, the panel of human P450s was screened as described above.

CYP4A11 = target: T3, CYP4A11 (Homo sapiens, UniProt Q02928); experiment: as above; format: biochemical; conditions: result in words
T3 construct: purchased Discovery Labware (BD/Gentest); host or cells: insect cell expression system (membrane fractions)
T3 sequence (Q02928 5-519): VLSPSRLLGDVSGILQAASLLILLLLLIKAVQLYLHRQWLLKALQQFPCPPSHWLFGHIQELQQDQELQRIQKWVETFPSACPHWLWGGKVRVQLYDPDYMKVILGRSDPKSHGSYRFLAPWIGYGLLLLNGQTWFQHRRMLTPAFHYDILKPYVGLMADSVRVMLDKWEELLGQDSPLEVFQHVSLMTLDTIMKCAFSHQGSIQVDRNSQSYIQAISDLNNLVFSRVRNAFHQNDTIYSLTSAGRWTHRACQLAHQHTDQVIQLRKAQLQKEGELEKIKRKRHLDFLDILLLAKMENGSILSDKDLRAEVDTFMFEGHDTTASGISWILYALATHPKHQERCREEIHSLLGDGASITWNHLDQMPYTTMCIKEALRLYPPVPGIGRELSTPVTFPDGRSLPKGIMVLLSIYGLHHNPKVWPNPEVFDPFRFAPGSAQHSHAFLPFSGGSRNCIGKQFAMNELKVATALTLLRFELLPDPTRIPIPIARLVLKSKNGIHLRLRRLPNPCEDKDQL
Protocol: as §1, §2

CYP1A2 = target: T4, CYP1A2 (Homo sapiens, UniProt P05177); experiment: as above; format: biochemical; conditions: 50 µM substrate, 1 pmole P450; result in words
T4 construct: purchased Discovery Labware (BD/Gentest); host or cells: insect cell expression system (membrane fractions)
T4 sequence (P05177 2-516 limits assumed): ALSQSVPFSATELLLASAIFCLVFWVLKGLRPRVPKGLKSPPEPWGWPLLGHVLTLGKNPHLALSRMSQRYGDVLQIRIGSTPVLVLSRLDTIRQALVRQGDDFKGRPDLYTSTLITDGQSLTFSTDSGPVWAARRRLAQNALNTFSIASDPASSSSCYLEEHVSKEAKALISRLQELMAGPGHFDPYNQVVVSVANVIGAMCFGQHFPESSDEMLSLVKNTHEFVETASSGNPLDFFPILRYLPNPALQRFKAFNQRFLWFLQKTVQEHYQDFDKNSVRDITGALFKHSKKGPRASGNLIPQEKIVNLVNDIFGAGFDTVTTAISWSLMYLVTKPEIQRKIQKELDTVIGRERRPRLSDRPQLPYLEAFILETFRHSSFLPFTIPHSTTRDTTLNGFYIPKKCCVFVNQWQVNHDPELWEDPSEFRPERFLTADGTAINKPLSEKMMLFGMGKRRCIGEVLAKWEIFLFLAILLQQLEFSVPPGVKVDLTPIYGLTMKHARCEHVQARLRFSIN
Protocol: as §1, §2

CYP2D6 = target: T5, CYP2D6 (Homo sapiens, UniProt P10635); experiment: as above; format: biochemical
T5 construct: purchased Discovery Labware (BD/Gentest); host or cells: insect cell expression system (membrane fractions)
T5 sequence (P10635 whole entry): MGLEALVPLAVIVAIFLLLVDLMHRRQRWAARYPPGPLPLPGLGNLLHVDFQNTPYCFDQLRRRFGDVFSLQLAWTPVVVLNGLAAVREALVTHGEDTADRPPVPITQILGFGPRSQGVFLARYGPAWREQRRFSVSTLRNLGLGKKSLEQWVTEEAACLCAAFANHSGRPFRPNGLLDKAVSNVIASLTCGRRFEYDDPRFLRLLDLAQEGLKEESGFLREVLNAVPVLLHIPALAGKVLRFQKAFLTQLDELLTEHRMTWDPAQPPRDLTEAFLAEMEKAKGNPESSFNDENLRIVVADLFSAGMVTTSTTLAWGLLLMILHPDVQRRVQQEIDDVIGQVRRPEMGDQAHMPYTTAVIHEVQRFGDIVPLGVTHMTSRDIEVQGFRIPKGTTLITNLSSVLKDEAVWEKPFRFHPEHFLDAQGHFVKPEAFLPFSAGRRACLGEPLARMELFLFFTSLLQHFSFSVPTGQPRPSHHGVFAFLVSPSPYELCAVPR
Protocol: as §1, §2, §3

CYP1A1 = target: T6, CYP1A1 (Homo sapiens, UniProt P04798); experiment: as above; conditions: 50 µM substrate, 1 pmole P450, 37°C 30 minutes; result in words
T6 sequence (P04798 1-512): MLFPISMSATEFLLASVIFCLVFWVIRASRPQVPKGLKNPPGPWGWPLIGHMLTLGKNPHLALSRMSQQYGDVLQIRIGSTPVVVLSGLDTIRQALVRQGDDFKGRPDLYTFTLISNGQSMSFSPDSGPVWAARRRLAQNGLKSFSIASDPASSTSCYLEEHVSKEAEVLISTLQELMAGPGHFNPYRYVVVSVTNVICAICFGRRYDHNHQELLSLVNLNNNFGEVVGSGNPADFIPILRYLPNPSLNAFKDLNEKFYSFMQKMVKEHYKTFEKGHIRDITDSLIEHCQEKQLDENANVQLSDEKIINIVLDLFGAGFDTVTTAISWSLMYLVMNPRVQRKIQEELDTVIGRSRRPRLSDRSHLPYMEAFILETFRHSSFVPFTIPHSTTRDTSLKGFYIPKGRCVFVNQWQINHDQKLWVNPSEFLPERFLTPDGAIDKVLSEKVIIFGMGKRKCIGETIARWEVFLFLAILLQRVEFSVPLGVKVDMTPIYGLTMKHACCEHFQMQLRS

Molecule: O=C(O)[C@H]1CSC(c2nc3ccc(OCc4cccc(CN5CCN(c6ccccc6)CC5)c4)cc3s2)=N1 [LucPPXE, Luciferin 3-(4-phenylpiperazin-1-yl)methylbenzyl ether]
- P450 activity / cross reactivity with the derivative as substrate (CYP4F12; listed as 6'(3-((4-phenylpipenzin-1-yl))methyl)benzyloxy) luciferin): did not cross react
- selectivity for three members of the CYP3A subfamily [1]: selective
- P450 activity / selectivity with the derivative as substrate (CYP3A4): substantial activity
- competition at the substrate binding sites on CYP3A4 (CYP3A4): competitive at 2 of the 3 substrate binding sites
- sensitivity of the reaction with 3A4 to DMSO (CYP3A4): insensitive to DMSO at commonly used concentrations
- background luminescence (luciferase): about 2200 RLU

Molecule: O=C(O)[C@H]1CSC(c2nc3ccc(OCc4ccccc4C(F)(F)F)cc3s2)=N1 [6'(o-trifluoromethylbenzyloxy)-luciferin, Luciferin 2-trifluoromethylbenzyl ether]
- P450 activity / cross reactivity with the derivative as substrate (CYP4F12): did not show substantial cross reactivity
- selectivity for three members of the CYP3A subfamily [1]: selective
- P450 activity / selectivity with the derivative as substrate (CYP3A4): substantial activity

Molecule: COC(=O)[C@H]1CSC(c2nc3ccccc3s2)=N1 [carboxyl methyl ester of deoxyluciferin]
- P450 activity / selectivity with the derivative as substrate (CYP2C19): substantial activity with CYP2C 19 and strong selectivity

Molecule: 2-(7-methyoxy-quinoxalin-2-yl)-4-5-dihydro-thiazole-4-carboxylic acid [quinoxalylluciferin 6-methyl ether]
- P450 activity / selectivity with the derivative as substrate (CYP4A11): substrate

Molecule: COc1ccc2nc(C3=NC(C(=O)OCc4cccnc4)CS3)sc2c1 (stereo not shown) [m-picolinyl ester of luciferin methyl ether]
- P450 activity / selectivity with the derivative as substrate (CYP1A2): showed a preference
- signal when the esterase was not added, relative to the plus esterase signal (CYP2D6; purified recombinant CYP2D6 substantially free of carboxylesterases, 2 step assay): less than 10%
- P450 activity / selectivity with the derivative as substrate (CYP2D6; result in words): showed a preference
- P450 activity / selectivity with the derivative as substrate (CYP1A1): showed a preference

Molecule: O=C(O)[C@H]1CSC(c2nc3ccc(OCc4c(F)c(F)c(F)c(F)c4F)cc3s2)=N1 [6'-(2,3,4,5,6-pentafluorobenzyloxy)-luciferin]
- P450 activity / cross reactivity with the derivative as substrate (CYP4F12): did not show substantial cross reactivity
- selectivity for three members of the CYP3A subfamily [1]: selective
- P450 activity / selectivity with the derivative as substrate (CYP3A4): substantial activity
- background luminescence (luciferase): about 900 RLU

Molecule: O=C(O)[C@H]1CSC(c2nc3ccc(OCc4cc(C(F)(F)F)ccc4C(F)(F)F)cc3s2)=N1 [6'(2,5-ditrifluoromethylbenzyloxy)-luciferin]
- selectivity for three members of the CYP3A subfamily [1]: selective

Molecule: N-benzyloxycarbonyl aminoluciferin
- P450 activity / selectivity with the derivative as substrate (CYP1A1): strong selectivity

Molecule: O=C(O)[C@H]1CSC(c2nc3ccc(OCc4c(F)c(F)c(F)c(CN5CCN(c6ccccc6)CC5)c4F)cc3s2)=N1 [LucPPXE4F, 6'-(2,3,4,6-tetrafluoro-5-((4-phenylpiperizin-1-yl)methyl)benzyloxy)-luciferin]
- P450 activity / cross reactivity with the derivative as substrate (CYP4F12): did not show substantial cross reactivity
- selectivity for three members of the CYP3A subfamily [1]: selective
- P450 activity / selectivity with the derivative as substrate (CYP3A4): substantial activity

Molecule: Cc1cc(C)c(COc2ccc3nc(C4=N[C@@H](C(=O)O)CS4)sc3c2)c(C)c1 [6'(2,4,6-trimethylbenzyloxy)-luciferin, Luciferin 6-(2,4,6-trimethylbenzyl) ether]
- P450 activity / cross reactivity with the derivative as substrate (CYP4F12): did not show substantial cross reactivity
- selectivity for three members of the CYP3A subfamily [1]: selective
- P450 activity / selectivity with the derivative as substrate (CYP3A4): substantial activity

Molecule: Bis-luciferin-methylenediether
- P450 activity / selectivity with the derivative as substrate (CYP1A1): selective

Molecule: N-isobutoxycarbonyl-aminoluciferin [N-isobutoxycarbonyl aminolucifern]
- P450 activity / selectivity with the derivative as substrate (CYP1A1): strong selectivity

Molecule: O=C(O)[C@H]1CSC(c2ccc3cc(OCOCc4ccccc4)ccc3n2)=N1 [6'benzyloxymethoxy-quinolylluciferin, quinolinyl luciferin benzyloxymethyl ether]
- selectivity for three members of the CYP3A subfamily [1]: selective

Molecule: COc1ccc2cc(C3=N[C@@H](C(=O)O)CS3)ccc2c1 [Naphthylluciferin 6-methyl ether, naphthyl luciferin methyl ether]
- P450 activity / selectivity with the derivative as substrate (CYP4A11): substrate
